# Experimental data as given in ChEMBL document CHEMBL3751718, “Synthesis and biological evaluation of lipid-like 5-(2-hydroxyethyl)-4-methyl-1,3-thiazole derivatives as potential anticancer and antimicrobial agents” (Medchemcomm, 2015).
# Calls of active or inactive are those of the source. The rule behind the calls is not given here.
# Tests used:
# Candida albicans [1] = assay: Fungicidal activity against Candida albicans MSCL 378 incubated for 24 hrs followed by colony transfer to agar plates for 24 hrs by colony counting based assay; assay type: functional; conditions: MSCL 378, 24 h, read-out: MFC99.9
# [2] = Cytotoxicity against human HT1080 cells assessed as cell viability at 6.25 to 50 ug/ml by crystal violet-based assay; assay type: functional; conditions: HT-1080, read-out: LC50 (the source's name)
# MG-22A [3] = assay: Cytotoxicity against mouse MG-22A cells assessed as cell viability at 6.25 to 50 ug/ml after 72 hrs by MTT assay; assay type: functional; conditions: read-out: LC50 (the source's name)
# [4] = Cytotoxicity against mouse NIH/3T3 cells assessed as cell viability at 6.25 to 50 ug/ml by neutral red-based assay; conditions: nih3t3
# Aspergillus niger [5] = assay: Antifungal activity against Aspergillus niger MSCL 324 at 5 mg/ml after 48 hrs by agar dish diffusion method; assay type: functional
# Pseudomonas aeruginosa [6] = assay: Antibacterial activity against Pseudomonas aeruginosa MSCL 331 at 5 mg/ml after 24 hrs by agar dish diffusion method; assay type: functional
# Aspergillus niger [7] = assay: Antifungal activity against Aspergillus niger MSCL 324 at 10 mg/ml after 48 hrs by agar dish diffusion method; assay type: functional; conditions: MSCL 324, 48 h, read-out: DIZ
# Staphylococcus aureus [8] = assay: Antibacterial activity against Staphylococcus aureus MSCL 334 after 24 hrs by broth dilution method; assay type: functional; conditions: MSCL 334, 24 h
# Bacillus cereus [9] = assay: Antibacterial activity against Bacillus cereus MSCL 330 after 24 hrs by broth dilution method; assay type: functional; conditions: MSCL 330, 24 h
# Staphylococcus aureus [10] = assay: Bactericidal activity against Staphylococcus aureus MSCL 334 incubated for 24 hrs followed by colony transfer to agar plates for 24 hrs by colony counting based assay; assay type: functional; conditions: MSCL 334, 24 h, read-out: MBC99.9
# MG-22A [11] = assay: Induction of nitric oxide production in mouse MG-22A cells by Griess assay; assay type: functional; design: concentration or dose not given beside the values
# Proteus mirabilis [12] = assay: Antibacterial activity against Proteus mirabilis MSCL 590 at 5 mg/ml after 24 hrs by agar dish diffusion method; assay type: functional
# MG-22A [13] = assay: Cytotoxicity against mouse MG-22A cells assessed as cell viability at 6.25 to 50 ug/ml by crystal violet-based assay; assay type: functional; conditions: read-out: LC50 (the source's name)
# Proteus mirabilis [14] = assay: Antibacterial activity against Proteus mirabilis MSCL 590 at 10 mg/ml after 24 hrs by agar dish diffusion method; assay type: functional
# Candida albicans [15] = assay: Antifungal activity against Candida albicans MSCL 378 at 5 mg/ml after 48 hrs by agar dish diffusion method; assay type: functional; conditions: MSCL 378, 48 h, read-out: DIZ
# Staphylococcus aureus [16] = assay: Antibacterial activity against Staphylococcus aureus MSCL 334 at 5 mg/ml after 24 hrs by agar dish diffusion method; assay type: functional; conditions: for zone of inhibition at 5000 µg/mL: MSCL 334, 24 h, read-out: DIZ
# Aspergillus niger [17] = assay: Fungicidal activity against Aspergillus niger MSCL 324 incubated for 24 hrs followed by colony transfer to agar plates for 24 hrs by colony counting based assay; assay type: functional; conditions: MSCL 324, 24 h, read-out: MFC99.9
# Bacillus cereus [18] = assay: Antibacterial activity against Bacillus cereus MSCL 330 at 5 mg/ml after 24 hrs by agar dish diffusion method; assay type: functional; conditions: for zone of inhibition at 5000 µg/mL: MSCL 330, 24 h, read-out: DIZ
# Escherichia coli [19] = assay: Antibacterial activity against Escherichia coli MSCL 332 at 5 mg/ml after 24 hrs by agar dish diffusion method; assay type: functional
# Candida albicans [20] = assay: Antifungal activity against Candida albicans MSCL 378 at 10 mg/ml after 48 hrs by agar dish diffusion method; assay type: functional; conditions: MSCL 378, 48 h, read-out: DIZ
# Pseudomonas aeruginosa [21] = assay: Antibacterial activity against Pseudomonas aeruginosa MSCL 331 at 10 mg/ml after 24 hrs by agar dish diffusion method; assay type: functional
# [22] = Cytotoxicity against human HT1080 cells assessed as cell viability at 6.25 to 50 ug/ml after 72 hrs by MTT assay; assay type: functional; conditions: HT-1080, 72 h, read-out: LC50 (the source's name)
# Aspergillus niger [23] = assay: Antifungal activity against Aspergillus niger MSCL 324 after 24 hrs by broth dilution method; assay type: functional; conditions: MSCL 324, 24 h
# Bacillus cereus [24] = assay: Antibacterial activity against Bacillus cereus MSCL 330 at 10 mg/ml after 24 hrs by agar dish diffusion method; assay type: functional; conditions: for zone of inhibition at 10000 µg/mL: MSCL 330, 24 h, read-out: DIZ
# Candida albicans [25] = assay: Antifungal activity against Candida albicans MSCL 378 after 24 hrs by broth dilution method; assay type: functional; conditions: MSCL 378, 24 h
# Staphylococcus aureus [26] = assay: Antibacterial activity against Staphylococcus aureus MSCL 334 at 10 mg/ml after 24 hrs by agar dish diffusion method; assay type: functional; conditions: for zone of inhibition at 10000 µg/mL: MSCL 334, 24 h, read-out: DIZ
# HT-1080 = assay: Induction of nitric oxide production in human HT1080 cells by Griess assay; assay type: functional; design: concentration or dose not given beside the values
# Escherichia coli [27] = assay: Antibacterial activity against Escherichia coli MSCL 332 at 10 mg/ml after 24 hrs by agar dish diffusion method; assay type: functional
# Bacillus cereus [28] = assay: Bactericidal activity against Bacillus cereus MSCL 330 incubated for 24 hrs followed by colony transfer to agar plates for 24 hrs by colony counting based assay; assay type: functional; conditions: MSCL 330, 24 h, read-out: MBC99.9
# Escherichia coli [29] = assay: Bactericidal activity against Escherichia coli MSCL 332 incubated for 24 hrs followed by colony transfer to agar plates for 24 hrs by colony counting based assay; assay type: functional; conditions: MSCL 332, 24 h, read-out: MBC99.9
# Escherichia coli [30] = assay: Antibacterial activity against Escherichia coli MSCL 332 after 24 hrs by broth dilution method; assay type: functional; conditions: MSCL 332, 24 h
SMILES,MFC (Candida albicans [1]) [µg/mL],CC50 [2],CC50 (MG-22A [3]),LC50 [4],diameter of the inhibition zone (DIZ) (Pseudomonas aeruginosa [6]),zone of inhibition at 10000 µg/mL (Aspergillus niger [7]) [mm],MIC (Staphylococcus aureus [8]) [µg/mL],MIC (Bacillus cereus [9]) [µg/mL],Activity (MG-22A [11]) [%],diameter of the inhibition zone (DIZ) (Proteus mirabilis [12]),CC50 (MG-22A [13]),diameter of the inhibition zone (DIZ) (Proteus mirabilis [14]),zone of inhibition at 5000 µg/mL (Candida albicans [15]) [mm],MFC (Aspergillus niger [17]) [µg/mL],zone of inhibition at 10000 µg/mL (Candida albicans [20]) [mm],diameter of the inhibition zone (DIZ) (Pseudomonas aeruginosa [21]),CC50 [22],MIC (Aspergillus niger [23]) [µg/mL],MIC (Candida albicans [25]) [µg/mL],Activity (HT-1080) [%],other results
CCCCCCCOCCc1scnc1C,128,62.2 µM,49.7 µM,224 µM,inactive,15,16,64,200,inactive,37.3 µM,inactive,13,256,13,inactive,70.5 µM,16,64,200,"zone of inhibition at 5000 µg/mL (Aspergillus niger [5]; MSCL 324, 48 h, read-out: DIZ): 15 mm; MBC (Staphylococcus aureus [10]): 64 µg/mL; zone of inhibition at 5000 µg/mL (Staphylococcus aureus [16]): 11 mm; zone of inhibition at 5000 µg/mL (Bacillus cereus [18]): 12 mm; diameter of the inhibition zone (DIZ) (Escherichia coli [19]): inactive; zone of inhibition at 10000 µg/mL (Bacillus cereus [24]): 12 mm; zone of inhibition at 10000 µg/mL (Staphylococcus aureus [26]): 15 mm; diameter of the inhibition zone (DIZ) (Escherichia coli [27]): inactive; MBC (Bacillus cereus [28]): > 256 µg/mL"
CCCCCCCOCCc1sc[n+](C)c1C.[I-],> 256,15.6 µM,18.2 µM,467.3 µM,inactive,11,16,> 256,100,inactive,20.8 µM,inactive,13,> 256,20,inactive,15.6 µM,> 256,256,200,"diameter of the inhibition zone (DIZ) (Aspergillus niger [5]): inactive; MBC (Staphylococcus aureus [10]): 64 µg/mL; zone of inhibition at 5000 µg/mL (Staphylococcus aureus [16]): 20 mm; zone of inhibition at 5000 µg/mL (Bacillus cereus [18]): 12 mm; zone of inhibition at 5000 µg/mL (Escherichia coli [19]; MSCL 332, 24 h, read-out: DIZ): 11 mm; MBC (Escherichia coli [29]): 256 µg/mL; zone of inhibition at 10000 µg/mL (Bacillus cereus [24]): 13 mm; zone of inhibition at 10000 µg/mL (Staphylococcus aureus [26]): 21 mm; MIC (Escherichia coli [30]): 256 µg/mL; zone of inhibition at 10000 µg/mL (Escherichia coli [27]; MSCL 332, 24 h, read-out: DIZ): 16 mm; MBC (Bacillus cereus [28]): > 256 µg/mL"
CCCCCCCCCCCCCCCCCCOCCc1scnc1C,> 256,> 100 µg/mL,> 100 µg/mL,528 µg/mL,inactive,11,,,5,inactive,> 100 µg/mL,inactive,10,> 256,14,inactive,> 100 µg/mL,> 256,> 256,4,diameter of the inhibition zone (DIZ) (Aspergillus niger [5]): inactive; diameter of the inhibition zone (DIZ) (Staphylococcus aureus [16]): inactive; diameter of the inhibition zone (DIZ) (Bacillus cereus [18]): inactive; diameter of the inhibition zone (DIZ) (Escherichia coli [19]): inactive; diameter of the inhibition zone (DIZ) (Bacillus cereus [24]): inactive; diameter of the inhibition zone (DIZ) (Staphylococcus aureus [26]): inactive; diameter of the inhibition zone (DIZ) (Escherichia coli [27]): inactive
